Test results as given in patent US9545387B2, “Composition and kit comprising piperazine derivatives and metformin, and use thereof in the treatment of diabetes” (METABOLYS, priority 2012, dated 2017).

Experiment: oral glucose tolerance test (OGTT) in normal Swiss mice fasting for 17 hours, additive effect with metformin
Format: in vivo
Settings: metformin 300 mg/kg per os; for Glycaemia, Time −60 mn / Glycaemia, Time 0 mn / Glycaemia, Time 30 mn / Glycaemia, Time 60 mn / Glycaemia, Time 90 mn / Glycaemia, Time 120 mn: OGTT; for Glycaemia, Time −60 mn: given 1 h before glucose load, time −60 min; for Glycaemia, Time 0 mn: time 0 min; for Glycaemia, Time 30 mn: time 30 min; for Glycaemia, Time 60 mn: time 60 min; for Glycaemia, Time 90 mn: time 90 min; for Glycaemia, Time 120 mn: time 120 min
[1] = Table 4, compound 4 50 mg/kg per os
[2] = Table 3, compound 3 50 mg/kg per os

Structure (SMILES)	Glycaemia, Time −60 mn [1] [mM/liter]	Glycaemia, Time 0 mn [1] [mM/liter]	Glycaemia, Time 30 mn [1] [mM/liter]	Glycaemia, Time 60 mn [1] [mM/liter]	Glycaemia, Time 90 mn [1] [mM/liter]	Glycaemia, Time 120 mn [1] [mM/liter]	drop of glycaemia area under curve after glucose load (study 4, compound 4 50 mg/kg per os) [%]	Glycaemia, Time −60 mn [2] [mM/liter]	Glycaemia, Time 0 mn [2] [mM/liter]	Glycaemia, Time 30 mn [2] [mM/liter]	Glycaemia, Time 60 mn [2] [mM/liter]	Glycaemia, Time 90 mn [2] [mM/liter]	Glycaemia, Time 120 mn [2] [mM/liter]	drop of glycaemia area under curve after glucose load (study 3, compound 3 50 mg/kg per os) [%]
COc1ccccc1N1CCN(CCOc2ccc(CCCCC(=O)O)cc2)CC1 [Compound 4]	3.4 ± 0.2	4.0 ± 0.3	18.6 ± 3.2	13.3 ± 1.5	8.8 ± 1.0	6.8 ± 1.0	18.7							
COc1cccc(N2CCN(CCOc3ccc(C(=O)CCC(=O)O)cc3)CC2)c1 [Compound 3]								4.4 ± 0.3	5.5 ± 0.3	11.3 ± 0.6	9.7 ± 0.4	7.4 ± 0.3	7.2 ± 0.5	54.9
